Results from ChEMBL document CHEMBL1201862, “PubChem BioAssay data set” (2004).
The source made the active and inactive calls.

Experiments:
[1] = target: Mothers against decapentaplegic homolog 3 (Homo sapiens, UniProt P84022); assay: SMAD3 transcription factor inhibitors, dose response (AID 715); type: functional
[2] = target: Protein-tyrosine kinase 2-beta (Homo sapiens, UniProt Q14289);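 note: potency of inhibitors of PYK2 kinase phosphorylation of poly-GT substrate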
[3] = target: 26S proteasome non-ATPase regulatory subunit 14 (Homo sapiens, UniProt O00487); assay: inhibition of proteasome subunit RPN11 – biochemical, fluorescence polarization, uHTS hits, confirmation (AID 602368); type: functional
26S proteasome non-ATPase regulatory subunit 14, sequence (O00487 whole entry): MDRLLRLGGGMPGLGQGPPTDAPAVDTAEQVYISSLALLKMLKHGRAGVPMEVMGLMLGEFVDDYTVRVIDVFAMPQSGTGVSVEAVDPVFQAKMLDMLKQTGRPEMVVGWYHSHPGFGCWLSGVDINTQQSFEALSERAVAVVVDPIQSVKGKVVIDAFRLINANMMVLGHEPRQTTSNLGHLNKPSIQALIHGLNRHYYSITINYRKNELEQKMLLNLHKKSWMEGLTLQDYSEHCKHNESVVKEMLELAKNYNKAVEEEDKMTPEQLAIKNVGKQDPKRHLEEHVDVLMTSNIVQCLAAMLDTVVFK

[4] = target: 72 kDa type IV collagenase (Homo sapiens, UniProt P08253); assay: Dose Response validation of uHTS RPN11 inhibitor hits using a MMP-2 Fluorescence assay.; type: functional
72 kDa type IV collagenase, sequence (P08253 whole entry): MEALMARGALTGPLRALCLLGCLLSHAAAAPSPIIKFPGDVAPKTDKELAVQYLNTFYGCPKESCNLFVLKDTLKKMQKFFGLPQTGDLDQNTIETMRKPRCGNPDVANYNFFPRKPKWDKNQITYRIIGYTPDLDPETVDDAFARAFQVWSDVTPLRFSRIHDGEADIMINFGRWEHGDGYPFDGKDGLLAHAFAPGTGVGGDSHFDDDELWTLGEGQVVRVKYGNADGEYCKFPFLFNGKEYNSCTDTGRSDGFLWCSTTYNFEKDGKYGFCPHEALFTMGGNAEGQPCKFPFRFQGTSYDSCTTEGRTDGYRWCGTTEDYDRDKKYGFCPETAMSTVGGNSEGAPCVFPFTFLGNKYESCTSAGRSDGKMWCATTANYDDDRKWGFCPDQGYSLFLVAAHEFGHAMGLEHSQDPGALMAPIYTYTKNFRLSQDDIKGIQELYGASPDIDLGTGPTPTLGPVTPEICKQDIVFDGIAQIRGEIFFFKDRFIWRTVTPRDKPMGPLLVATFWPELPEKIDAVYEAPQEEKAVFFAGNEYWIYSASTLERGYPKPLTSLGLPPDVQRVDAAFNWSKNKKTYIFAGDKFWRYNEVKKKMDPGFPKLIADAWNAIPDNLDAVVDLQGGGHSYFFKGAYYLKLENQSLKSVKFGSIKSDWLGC

Prothrombin = Prothrombin (Bos taurus, UniProt P00735); assay: thrombin inhibition, dose response, biochemical, fluorescence polarization, uHTS hits (AID 602369); type: functional
Cytochrome P450 2C9 = Cytochrome P450 2C9 (Homo sapiens, UniProt P11712); details: Potency
Cytochrome P450 2C9, sequence (P11712 whole entry): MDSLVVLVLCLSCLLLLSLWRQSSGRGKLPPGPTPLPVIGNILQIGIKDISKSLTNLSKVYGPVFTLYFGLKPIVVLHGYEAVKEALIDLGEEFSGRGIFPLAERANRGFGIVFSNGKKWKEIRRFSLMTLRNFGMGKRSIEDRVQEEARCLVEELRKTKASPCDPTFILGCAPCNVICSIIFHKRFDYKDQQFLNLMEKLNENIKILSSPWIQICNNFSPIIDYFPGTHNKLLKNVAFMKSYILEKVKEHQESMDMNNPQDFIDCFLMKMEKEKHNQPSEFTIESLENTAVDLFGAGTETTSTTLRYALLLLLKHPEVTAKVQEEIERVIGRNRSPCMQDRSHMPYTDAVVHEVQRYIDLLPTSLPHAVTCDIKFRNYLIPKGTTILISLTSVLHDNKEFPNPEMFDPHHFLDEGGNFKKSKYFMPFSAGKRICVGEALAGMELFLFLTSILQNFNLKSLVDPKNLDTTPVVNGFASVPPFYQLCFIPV

Cytochrome P450 2D6 = Cytochrome P450 2D6 (Homo sapiens, UniProt P10635); assay: qHTS Assay for Inhibitors and Substrates of Cytochrome P450 2D6. [Related pubchem assays: 410 ]; type: ADME; details: read-out: Potency
Protein Rev = Protein Rev (Human immunodeficiency virus type 1 group M subtype B (isolate WMJ22)(HIV-1), UniProt P05866); assay: HIV-1 Rev-RRE RNA binding disruptors, dose response, biochemical, protein-RNA interaction (AID 842); parameters: species or system Human immunodeficiency virus 1
Protein Rev, sequence (P05866 whole entry): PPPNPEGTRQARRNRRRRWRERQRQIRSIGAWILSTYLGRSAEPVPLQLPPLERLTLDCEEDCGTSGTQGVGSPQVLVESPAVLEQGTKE

[5] = tested on: Streptococcus sp. 'group A'; assay: growth inhibition of control SK(-) GAS strain, dose response, counter-screen for streptokinase expression inhibitor project, luminescence, kanamycin, BacTiterGlo, confirmation (AID 1900); type: functional, organism-based
Streptokinase A = target: T1, Streptokinase A (Streptococcus pyogenes serotype M1, UniProt P10520); assay: S. pyogenes streptokinase expression inhibitors, potency, dose response, plasminogen activation absorbance, OD405 (AID 1914); type: functional, Streptococcus pyogenes M1 GAS;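 note: secreted streptokinase activity via plasminogen activation per viability signal from cell pellet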
T1 sequence (P10520 whole entry): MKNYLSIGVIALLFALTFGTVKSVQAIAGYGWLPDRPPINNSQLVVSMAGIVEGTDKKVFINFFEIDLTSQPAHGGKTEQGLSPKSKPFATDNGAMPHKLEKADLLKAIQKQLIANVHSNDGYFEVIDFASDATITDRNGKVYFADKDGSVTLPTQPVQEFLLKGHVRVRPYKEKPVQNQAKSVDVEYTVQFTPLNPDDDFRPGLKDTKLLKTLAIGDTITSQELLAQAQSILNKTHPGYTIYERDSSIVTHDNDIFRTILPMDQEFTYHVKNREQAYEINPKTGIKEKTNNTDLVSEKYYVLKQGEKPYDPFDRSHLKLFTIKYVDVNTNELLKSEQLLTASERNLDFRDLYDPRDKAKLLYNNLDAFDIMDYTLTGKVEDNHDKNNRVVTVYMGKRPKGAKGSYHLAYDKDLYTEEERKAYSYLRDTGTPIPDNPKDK

[6] = HIV-1 Env-mediated cell fusion inhibitors, dose response, CCR5-tropic Env (AID 2279); type: functional
Streptococcus = assay: Group A Streptococcus viability loss, dose response, counter-screen for streptokinase expression inhibitor project, luminescence, BacTiterGlo (AID 1915); type: functional, organism-based;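 note: potency for reduction of bacterial viability or growth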
[7] = target: T2, Microphthalmia-associated transcription factor (Homo sapiens, UniProt O75030); assay: TRPM1 promoter luciferase signal decrease, dose response, MITF inhibitor project, cell-based, SK-MEL-5, cherry-picked, set 3 (AID 493073); type: functional
T2 sequence (O75030 whole entry): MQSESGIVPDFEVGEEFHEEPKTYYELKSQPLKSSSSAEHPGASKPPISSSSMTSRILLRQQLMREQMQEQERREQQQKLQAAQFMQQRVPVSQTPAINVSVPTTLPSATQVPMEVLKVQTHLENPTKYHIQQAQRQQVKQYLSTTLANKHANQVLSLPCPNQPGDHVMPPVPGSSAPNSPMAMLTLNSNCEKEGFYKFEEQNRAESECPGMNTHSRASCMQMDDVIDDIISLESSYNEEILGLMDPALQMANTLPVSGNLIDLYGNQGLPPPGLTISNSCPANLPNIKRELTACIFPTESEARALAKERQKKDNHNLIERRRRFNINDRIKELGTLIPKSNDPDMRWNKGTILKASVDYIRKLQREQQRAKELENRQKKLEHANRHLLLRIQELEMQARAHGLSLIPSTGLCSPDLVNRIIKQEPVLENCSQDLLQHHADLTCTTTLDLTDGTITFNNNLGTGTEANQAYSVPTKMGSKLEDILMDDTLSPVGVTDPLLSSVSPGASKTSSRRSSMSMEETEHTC

Large T antigen = Large T antigen (Simian virus 40, UniProt P03070); type: functional, Betapolyomavirus macacae;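 note: Confirmatory-stage PubChem screen for compounds that inhibit SV40 T antigen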
Large T antigen, sequence (P03070 whole entry): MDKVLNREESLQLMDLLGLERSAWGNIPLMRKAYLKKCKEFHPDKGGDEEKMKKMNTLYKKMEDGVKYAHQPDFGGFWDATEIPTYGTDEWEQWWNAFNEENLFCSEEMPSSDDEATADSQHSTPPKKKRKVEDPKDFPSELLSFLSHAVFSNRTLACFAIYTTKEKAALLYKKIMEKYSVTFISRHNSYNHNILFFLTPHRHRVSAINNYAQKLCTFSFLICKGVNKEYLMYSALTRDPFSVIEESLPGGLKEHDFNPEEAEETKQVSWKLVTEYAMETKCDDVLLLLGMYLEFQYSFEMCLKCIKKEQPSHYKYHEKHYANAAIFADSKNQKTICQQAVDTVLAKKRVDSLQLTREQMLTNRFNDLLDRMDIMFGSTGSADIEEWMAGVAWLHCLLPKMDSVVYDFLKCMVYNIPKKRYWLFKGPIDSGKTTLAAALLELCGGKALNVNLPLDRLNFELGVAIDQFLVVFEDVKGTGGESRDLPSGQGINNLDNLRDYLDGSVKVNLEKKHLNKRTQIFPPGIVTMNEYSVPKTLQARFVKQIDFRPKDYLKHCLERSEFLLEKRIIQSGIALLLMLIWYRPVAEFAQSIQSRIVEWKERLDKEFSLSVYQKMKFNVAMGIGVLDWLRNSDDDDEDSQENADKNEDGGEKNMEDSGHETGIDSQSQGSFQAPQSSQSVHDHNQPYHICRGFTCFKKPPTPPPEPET

[8] = target: T3, Mannose-6-phosphate isomerase (Homo sapiens, UniProt P34949); assay: inhibitors of human PMI, primary screen, biochemical, fluorescence intensity, coupled assay (AID 1209)
T3 sequence (P34949 whole entry): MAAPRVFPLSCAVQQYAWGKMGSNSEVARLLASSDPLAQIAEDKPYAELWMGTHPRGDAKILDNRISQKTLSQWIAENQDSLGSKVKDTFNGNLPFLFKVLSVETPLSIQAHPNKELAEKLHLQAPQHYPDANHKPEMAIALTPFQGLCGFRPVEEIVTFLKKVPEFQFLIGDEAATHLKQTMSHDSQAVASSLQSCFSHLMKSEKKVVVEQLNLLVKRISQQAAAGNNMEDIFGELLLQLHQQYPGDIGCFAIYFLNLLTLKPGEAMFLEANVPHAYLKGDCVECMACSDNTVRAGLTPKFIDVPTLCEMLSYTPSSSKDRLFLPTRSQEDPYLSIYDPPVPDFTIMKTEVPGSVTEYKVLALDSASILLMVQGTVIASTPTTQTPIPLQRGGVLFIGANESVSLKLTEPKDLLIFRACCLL

[9] = target: T3, Mannose-6-phosphate isomerase; assay: human PMI inhibitors, high substrate, primary screen, biochemical, fluorescence intensity, high mannose 6-phosphate (AID 1220)
[10] = target: Endoplasmic reticulum aminopeptidase 1 (Homo sapiens, UniProt Q9NZ08); assay: ERAP1 aminopeptidase inhibitors, dose response, biochemical, cherry-pick, set 2, plate reader (AID 743314)
Endoplasmic reticulum aminopeptidase 1, sequence (Q9NZ08 whole entry): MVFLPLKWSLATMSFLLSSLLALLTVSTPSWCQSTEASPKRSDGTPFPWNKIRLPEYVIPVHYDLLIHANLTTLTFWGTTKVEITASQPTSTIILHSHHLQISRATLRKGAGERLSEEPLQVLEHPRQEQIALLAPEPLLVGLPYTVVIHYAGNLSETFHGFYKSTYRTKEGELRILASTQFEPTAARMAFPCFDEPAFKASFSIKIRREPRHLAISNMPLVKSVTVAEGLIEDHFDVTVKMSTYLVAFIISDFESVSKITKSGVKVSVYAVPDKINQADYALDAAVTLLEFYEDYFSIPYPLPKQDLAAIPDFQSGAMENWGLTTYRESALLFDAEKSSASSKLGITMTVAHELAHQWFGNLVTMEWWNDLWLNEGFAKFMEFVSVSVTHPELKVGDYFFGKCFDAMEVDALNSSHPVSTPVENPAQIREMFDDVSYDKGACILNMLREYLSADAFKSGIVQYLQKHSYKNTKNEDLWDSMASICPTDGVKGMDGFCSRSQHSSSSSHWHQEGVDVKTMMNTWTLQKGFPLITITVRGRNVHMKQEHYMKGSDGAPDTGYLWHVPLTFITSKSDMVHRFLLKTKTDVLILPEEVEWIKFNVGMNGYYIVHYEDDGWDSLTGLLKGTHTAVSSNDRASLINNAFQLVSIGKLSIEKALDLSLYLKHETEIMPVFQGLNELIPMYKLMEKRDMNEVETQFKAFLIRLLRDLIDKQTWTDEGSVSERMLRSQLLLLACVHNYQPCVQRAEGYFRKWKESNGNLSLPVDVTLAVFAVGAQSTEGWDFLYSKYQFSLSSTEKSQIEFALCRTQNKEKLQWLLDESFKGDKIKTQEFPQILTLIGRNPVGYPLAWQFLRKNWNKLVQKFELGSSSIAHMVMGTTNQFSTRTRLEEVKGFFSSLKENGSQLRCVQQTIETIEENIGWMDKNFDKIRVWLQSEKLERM

Cytochrome P450 1A2 = target: T4, Cytochrome P450 1A2 (Homo sapiens, UniProt P05177);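 note: PubChem cytochrome P450 panel assay, CYP1A2 panel member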
T4 sequence (P05177 whole entry): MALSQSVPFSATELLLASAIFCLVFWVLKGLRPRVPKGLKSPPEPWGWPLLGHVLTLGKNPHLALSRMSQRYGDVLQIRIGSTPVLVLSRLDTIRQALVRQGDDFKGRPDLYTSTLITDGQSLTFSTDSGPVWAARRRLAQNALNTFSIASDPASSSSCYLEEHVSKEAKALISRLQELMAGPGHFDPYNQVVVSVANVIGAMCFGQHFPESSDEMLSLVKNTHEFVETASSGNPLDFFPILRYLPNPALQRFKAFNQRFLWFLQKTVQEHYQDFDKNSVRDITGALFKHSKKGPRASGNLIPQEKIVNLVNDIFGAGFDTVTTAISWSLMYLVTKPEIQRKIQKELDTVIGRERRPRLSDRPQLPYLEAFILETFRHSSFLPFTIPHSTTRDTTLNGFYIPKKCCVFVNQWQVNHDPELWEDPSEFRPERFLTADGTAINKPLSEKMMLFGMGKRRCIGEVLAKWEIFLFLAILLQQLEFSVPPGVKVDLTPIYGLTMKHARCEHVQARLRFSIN

Cytochrome P450 3A4 = Cytochrome P450 3A4 (Homo sapiens, UniProt P08684);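 note: CYP3A4 tested as one member of a cytochrome P450 panel screen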
Cytochrome P450 3A4, sequence (P08684 whole entry): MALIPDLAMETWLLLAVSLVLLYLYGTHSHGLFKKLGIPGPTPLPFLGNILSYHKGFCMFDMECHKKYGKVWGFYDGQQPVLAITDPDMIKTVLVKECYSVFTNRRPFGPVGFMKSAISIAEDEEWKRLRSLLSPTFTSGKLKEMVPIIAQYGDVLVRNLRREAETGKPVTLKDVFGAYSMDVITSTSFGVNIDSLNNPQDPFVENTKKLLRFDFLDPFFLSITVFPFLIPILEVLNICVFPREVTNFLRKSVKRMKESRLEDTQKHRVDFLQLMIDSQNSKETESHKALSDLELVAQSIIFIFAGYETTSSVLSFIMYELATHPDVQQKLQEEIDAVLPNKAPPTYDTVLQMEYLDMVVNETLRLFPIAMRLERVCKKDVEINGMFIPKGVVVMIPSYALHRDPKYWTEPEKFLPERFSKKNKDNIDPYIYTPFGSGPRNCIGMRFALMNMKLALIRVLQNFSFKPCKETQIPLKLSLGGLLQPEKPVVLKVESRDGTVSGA

Protein-tyrosine kinase 2-beta, sequence (Q14289 whole entry): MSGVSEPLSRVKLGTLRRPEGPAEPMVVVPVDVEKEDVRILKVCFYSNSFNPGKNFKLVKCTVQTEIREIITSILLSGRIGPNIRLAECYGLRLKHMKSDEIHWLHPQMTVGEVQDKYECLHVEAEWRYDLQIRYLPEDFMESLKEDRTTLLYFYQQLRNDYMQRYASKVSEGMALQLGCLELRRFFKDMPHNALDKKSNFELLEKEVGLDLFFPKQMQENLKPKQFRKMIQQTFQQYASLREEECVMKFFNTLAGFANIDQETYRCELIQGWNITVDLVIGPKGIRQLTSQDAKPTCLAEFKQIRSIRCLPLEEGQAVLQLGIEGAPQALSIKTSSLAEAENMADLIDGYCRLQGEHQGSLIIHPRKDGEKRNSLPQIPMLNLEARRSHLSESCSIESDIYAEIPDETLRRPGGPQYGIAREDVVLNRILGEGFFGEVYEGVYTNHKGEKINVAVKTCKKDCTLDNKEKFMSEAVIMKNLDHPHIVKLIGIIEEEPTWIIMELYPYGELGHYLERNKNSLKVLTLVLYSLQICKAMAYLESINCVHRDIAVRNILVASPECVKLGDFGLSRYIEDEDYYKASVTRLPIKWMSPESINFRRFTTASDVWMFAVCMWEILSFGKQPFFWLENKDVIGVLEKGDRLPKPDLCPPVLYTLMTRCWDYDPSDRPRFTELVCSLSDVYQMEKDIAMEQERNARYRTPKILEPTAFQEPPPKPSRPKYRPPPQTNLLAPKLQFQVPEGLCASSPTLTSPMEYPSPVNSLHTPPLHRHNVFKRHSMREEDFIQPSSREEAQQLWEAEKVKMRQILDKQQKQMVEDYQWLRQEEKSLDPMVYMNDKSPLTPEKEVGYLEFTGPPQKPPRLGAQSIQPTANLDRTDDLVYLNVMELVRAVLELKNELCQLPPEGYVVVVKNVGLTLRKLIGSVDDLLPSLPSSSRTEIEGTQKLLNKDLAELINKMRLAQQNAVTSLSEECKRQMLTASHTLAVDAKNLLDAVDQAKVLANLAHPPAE

O=C(NCCCN1CCCCCC1)c1ccc(CS(=O)(=O)Cc2ccccc2F)o1
IC50 [1]: 4.1 µM (active) | IC50 [2]: 13.1 µM (not active) | IC50 [3]: 7.28 µM (active) | IC50 [4]: > 100 µM (inactive) | IC50 (Prothrombin): 68.8 µM (active)

CC[C@H](C)C(=O)O[C@@H]1CCC=C2C=C[C@H](C)[C@@H](CC[C@H]3C[C@@H](O)CC(=O)O3)[C@H]21
AC50 (Cytochrome P450 2C9): 39.8 µM (inconclusive)

COc1ccc(C[C@@H]2NC[C@H](O)[C@H]2OC(C)=O)cc1
AC50 (Cytochrome P450 2D6): 20 µM (inconclusive)

CC(C)CN=c1cc(-c2ccccc2)oc2ccc(Cl)cc12
IC50 (Protein Rev): > 79.4 µM (not active)

CCOc1cc(/C=N/Nc2cccc(C(=O)O)c2)ccc1OC(=O)c1ccccc1
EC50 [5]: 3.53 µM (active) | EC50 (Streptokinase A): > 150 µM (not active) | IC50 [6]: 3.03 µM (active) | EC50 (Streptococcus): 17 µM (active) | AC50 [7]: 1.38 µM (active)

O=c1ccc2cc(O)c(O)cc2o1 [ESCULETIN]
IC50 (Large T antigen): 25.9 µM (active) | IC50 [8]: > 50 µM (not active) | IC50 [9]: > 50 µM (not active) | AC50 [10]: 9.72 µM (active) | AC50 (Cytochrome P450 1A2): 15.8 µM (inconclusive) | AC50 (Cytochrome P450 3A4): 12.6 µM (inconclusive)
